Data on six compounds can be found in ChEMBL document CHEMBL1201862, “PubChem BioAssay data set” (2004).

Values joined by “and” are separate entries in the source; they are usually repeats but may differ in a detail not shown here. Identical values can stand only once. Active and inactive are the calls of the source. A value given as a limit tells only on which side of the number the result lay.

One may read the IC50 as the point on the concentration scale where inhibition reaches its midpoint. The term AC50 denotes the concentration giving half of the maximal activity seen. Broadly, the EC50 is the concentration needed to bring the measured effect to its halfway point.

In test [1] the target is Intestinal-type alkaline phosphatase (Mus musculus, UniProt P24822). Nature of the test: PubChem AID 488785. It counts as functional.
Intestinal-type alkaline phosphatase, sequence (P24822 whole entry): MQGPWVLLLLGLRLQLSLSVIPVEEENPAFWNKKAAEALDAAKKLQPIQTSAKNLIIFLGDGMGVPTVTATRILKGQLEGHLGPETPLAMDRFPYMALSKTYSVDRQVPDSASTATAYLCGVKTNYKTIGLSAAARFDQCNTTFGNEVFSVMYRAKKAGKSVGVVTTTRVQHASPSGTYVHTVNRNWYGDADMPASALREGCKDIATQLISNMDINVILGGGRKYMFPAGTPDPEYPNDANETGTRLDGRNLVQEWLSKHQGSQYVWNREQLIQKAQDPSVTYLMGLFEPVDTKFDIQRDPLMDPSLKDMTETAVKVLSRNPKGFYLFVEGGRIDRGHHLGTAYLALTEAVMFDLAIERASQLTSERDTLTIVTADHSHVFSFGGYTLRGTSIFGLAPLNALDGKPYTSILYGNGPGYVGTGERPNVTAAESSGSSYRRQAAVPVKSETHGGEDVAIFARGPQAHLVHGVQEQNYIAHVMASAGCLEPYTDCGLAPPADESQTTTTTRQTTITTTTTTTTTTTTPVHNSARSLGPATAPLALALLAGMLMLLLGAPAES
The target in test [2] is DNA dC->dU-editing enzyme APOBEC-3G (Homo sapiens, UniProt Q9HC16). The test can be described thus: Dose Response confirmation of small molecule APOBEC3G DNA Deaminase Inhibitors via a fluorescence-based single-stranded DNA deaminase assay. [Related pubchem assays (depositor defined):AID493012, AID493028]. The class given is functional.
DNA dC->dU-editing enzyme APOBEC-3G, sequence (Q9HC16 whole entry): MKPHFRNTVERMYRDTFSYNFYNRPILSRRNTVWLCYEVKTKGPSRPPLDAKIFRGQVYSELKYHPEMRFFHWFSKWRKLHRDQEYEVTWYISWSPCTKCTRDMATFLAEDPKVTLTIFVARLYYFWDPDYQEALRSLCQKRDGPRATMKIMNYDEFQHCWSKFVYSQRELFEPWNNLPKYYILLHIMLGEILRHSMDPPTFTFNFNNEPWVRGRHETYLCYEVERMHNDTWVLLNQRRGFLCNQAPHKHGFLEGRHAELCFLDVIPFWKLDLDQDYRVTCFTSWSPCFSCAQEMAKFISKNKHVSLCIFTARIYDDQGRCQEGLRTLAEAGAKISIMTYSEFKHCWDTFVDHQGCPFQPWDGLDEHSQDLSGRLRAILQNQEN
Test [3] addresses T1, Alkaline phosphatase, tissue-nonspecific isozyme (Homo sapiens, UniProt P05186).
T1 sequence (P05186 whole entry): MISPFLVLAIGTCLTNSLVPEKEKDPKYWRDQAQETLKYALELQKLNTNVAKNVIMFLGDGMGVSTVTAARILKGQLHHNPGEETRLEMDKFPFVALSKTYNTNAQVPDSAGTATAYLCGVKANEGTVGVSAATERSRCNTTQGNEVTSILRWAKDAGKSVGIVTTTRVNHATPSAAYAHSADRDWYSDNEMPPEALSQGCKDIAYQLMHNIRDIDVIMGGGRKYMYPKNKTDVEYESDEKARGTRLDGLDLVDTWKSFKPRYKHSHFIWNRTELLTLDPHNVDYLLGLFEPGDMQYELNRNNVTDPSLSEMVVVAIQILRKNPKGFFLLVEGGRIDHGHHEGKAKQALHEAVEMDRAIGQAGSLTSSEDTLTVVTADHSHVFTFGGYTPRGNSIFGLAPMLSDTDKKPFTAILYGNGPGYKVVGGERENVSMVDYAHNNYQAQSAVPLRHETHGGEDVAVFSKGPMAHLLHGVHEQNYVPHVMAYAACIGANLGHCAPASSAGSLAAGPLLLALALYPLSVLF
Nature of the test: TNAP enzyme inhibition by screening hits, dose response, selectivity assay for mouse IAP inhibitor project, biochemical, human TNAP, uHTS hits (AID 488906). It counts as functional.

For another test, the target named is Cytochrome P450 2C19 (Homo sapiens, UniProt P33261). Nature of the test: Cytochrome panel assay with activity outcomes. Panel member name: p450-cyp2c19 Compounds with AC50 equal or less than 10 uM are considered active. The class given is functional. Particulars: read-out: AC50.
Cytochrome P450 2C19, sequence (P33261 whole entry): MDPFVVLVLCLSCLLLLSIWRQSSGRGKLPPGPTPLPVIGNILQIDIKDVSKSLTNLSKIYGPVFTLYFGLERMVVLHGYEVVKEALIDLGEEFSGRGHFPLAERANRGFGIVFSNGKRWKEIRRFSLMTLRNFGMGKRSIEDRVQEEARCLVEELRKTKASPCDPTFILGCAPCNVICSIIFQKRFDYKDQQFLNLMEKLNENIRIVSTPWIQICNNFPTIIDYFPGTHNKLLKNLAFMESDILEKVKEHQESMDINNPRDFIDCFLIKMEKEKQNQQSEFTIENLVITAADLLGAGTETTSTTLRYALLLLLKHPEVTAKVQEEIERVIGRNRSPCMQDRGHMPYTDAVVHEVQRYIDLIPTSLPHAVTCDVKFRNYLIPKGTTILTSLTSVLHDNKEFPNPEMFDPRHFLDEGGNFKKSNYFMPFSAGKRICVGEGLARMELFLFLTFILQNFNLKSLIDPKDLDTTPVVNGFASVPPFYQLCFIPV
A further test addresses T2, Caspase-6 (Homo sapiens, UniProt P55212).
T2 sequence (P55212 whole entry): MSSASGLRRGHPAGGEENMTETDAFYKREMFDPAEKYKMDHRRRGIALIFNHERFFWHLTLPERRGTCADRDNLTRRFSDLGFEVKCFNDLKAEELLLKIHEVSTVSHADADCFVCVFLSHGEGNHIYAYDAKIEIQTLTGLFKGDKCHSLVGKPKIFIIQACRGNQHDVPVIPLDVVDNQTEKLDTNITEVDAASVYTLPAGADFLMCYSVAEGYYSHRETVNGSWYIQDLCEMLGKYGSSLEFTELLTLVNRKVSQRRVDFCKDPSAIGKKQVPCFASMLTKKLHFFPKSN
Nature of the test: human caspase-6 inhibitors, dose response, biochemical, VEID-R110 fluorescence, cherry-pick (AID 720632).

Test [4] concerns the target T3, Cytochrome P450 3A4 (Homo sapiens, UniProt P08684). Particulars: Potency.
Test [5] concerns the target T3, Cytochrome P450 3A4.
Test [6] has as its target Dual specificity tyrosine-phosphorylation-regulated kinase 1A (Rattus norvegicus, UniProt Q63470). The class given is biochemical, Homo sapiens.
In test [7] the target is T4, Microphthalmia-associated transcription factor (Homo sapiens, UniProt O75030).
T4 sequence (O75030 whole entry): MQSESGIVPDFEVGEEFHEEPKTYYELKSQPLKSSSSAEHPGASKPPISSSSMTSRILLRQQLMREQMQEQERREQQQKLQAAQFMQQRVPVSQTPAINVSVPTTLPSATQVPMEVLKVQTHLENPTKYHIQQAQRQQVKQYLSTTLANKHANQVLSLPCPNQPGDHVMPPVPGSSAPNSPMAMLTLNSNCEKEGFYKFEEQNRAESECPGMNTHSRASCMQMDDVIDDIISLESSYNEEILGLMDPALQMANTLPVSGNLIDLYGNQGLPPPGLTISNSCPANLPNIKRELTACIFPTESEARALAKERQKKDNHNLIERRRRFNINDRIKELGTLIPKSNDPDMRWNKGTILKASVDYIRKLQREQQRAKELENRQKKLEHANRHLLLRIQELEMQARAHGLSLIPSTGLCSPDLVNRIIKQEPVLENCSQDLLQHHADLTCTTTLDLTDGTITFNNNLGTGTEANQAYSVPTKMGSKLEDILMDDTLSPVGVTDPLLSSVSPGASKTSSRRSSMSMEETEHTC
The test can be described thus: TRPM1 promoter luciferase signal decrease, dose response, MITF inhibitor project, cell-based, SK-MEL-5, cherry-picked, set 3 (AID 493073).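 Further: SK-MEL-5 melanoma cells with luciferase driven by the MITF target TRPM1 promoter.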 The class given is functional.

For test [8], the system named is Streptococcus sp. 'group A'. Nature of the test: growth inhibition of control SK(-) GAS strain, dose response, counter-screen for streptokinase expression inhibitor project, luminescence, kanamycin, BacTiterGlo, confirmation (AID 1900). It counts as functional, organism-based.
The next test addresses Beta-galactosidase (Escherichia coli, UniProt Q8VNN2). Nature of the test: PubChem AID 485352. It counts as functional.
The target in the next test is T5, Streptokinase A (Streptococcus pyogenes serotype M1, UniProt P10520).
T5 sequence (P10520 whole entry): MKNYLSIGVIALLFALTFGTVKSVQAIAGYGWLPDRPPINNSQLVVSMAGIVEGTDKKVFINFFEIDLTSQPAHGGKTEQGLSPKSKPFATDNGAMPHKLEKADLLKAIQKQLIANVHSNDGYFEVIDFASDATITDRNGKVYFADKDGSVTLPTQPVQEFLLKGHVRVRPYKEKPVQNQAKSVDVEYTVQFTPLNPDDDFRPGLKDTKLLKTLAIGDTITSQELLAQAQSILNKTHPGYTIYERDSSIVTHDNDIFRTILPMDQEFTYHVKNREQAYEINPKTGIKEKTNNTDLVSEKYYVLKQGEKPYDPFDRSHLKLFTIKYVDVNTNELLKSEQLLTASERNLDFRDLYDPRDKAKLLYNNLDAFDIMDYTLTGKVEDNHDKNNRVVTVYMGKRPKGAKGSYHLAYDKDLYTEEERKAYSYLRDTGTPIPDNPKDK
Nature of the test: S. pyogenes streptokinase expression inhibitors, potency, dose response, plasminogen activation absorbance, OD405 (AID 1914).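 Further: secreted streptokinase activity via plasminogen activation per viability signal from cell pellet.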 The class given is functional, Streptococcus pyogenes M1 GAS.

Test [9] deals with T6, Type-1 angiotensin II receptor (Homo sapiens, UniProt P30556).
T6 sequence (P30556 whole entry): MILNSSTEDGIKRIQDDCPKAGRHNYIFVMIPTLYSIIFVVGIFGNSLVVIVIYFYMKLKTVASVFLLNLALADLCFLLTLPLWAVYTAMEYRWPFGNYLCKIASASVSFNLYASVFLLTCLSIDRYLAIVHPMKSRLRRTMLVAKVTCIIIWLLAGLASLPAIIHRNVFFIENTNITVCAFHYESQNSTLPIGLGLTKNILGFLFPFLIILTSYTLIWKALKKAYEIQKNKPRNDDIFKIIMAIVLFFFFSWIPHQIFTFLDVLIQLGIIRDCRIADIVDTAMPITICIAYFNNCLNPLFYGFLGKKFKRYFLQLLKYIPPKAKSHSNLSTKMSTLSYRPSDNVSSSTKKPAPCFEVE
Nature of the test: AT1 receptor antagonists, dose response, selectivity assay for APJ receptor antagonist project, cell-based, uHTS hits (AID 463214).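 Further: antagonist potency against angiotensin II stimulated AT1 response.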 It counts as functional.

The next test relates to Streptococcus. The test can be described thus: Group A Streptococcus viability loss, dose response, counter-screen for streptokinase expression inhibitor project, luminescence, BacTiterGlo (AID 1915).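 Further: potency for reduction of bacterial viability or growth.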 The class given is functional, organism-based. (In general: A counterscreen serves to expose hits that act by an unwanted route or on another target.)
A further test addresses Nonstructural protein 1 (Influenza A virus, UniProt Q194T2). It counts as functional, Influenza A virus (A/California/07/2009(H1N1)).
Test [10] concerns HEK293. Nature of the test: NOD1 signaling inhibitors, primary screen, cell-based, luminescence, uHTS (AID 1578). The class given is functional. Particulars: Homo sapiens.
The test system of test [11] is HEK293. Nature of the test: cells. It counts as functional, cell-based. Conditions: Homo sapiens.
Test [12] concerns HEK293. The test can be described thus: cells. It counts as functional, cell-based. Particulars: Homo sapiens. This is another data set of the same source.
Test [13] has as its system HEK293. The test can be described thus: NOD2 signaling inhibitors in MDP-stimulated cells, cell-based, uHTS, luminescence (AID 2001). It counts as functional. Particulars: Homo sapiens.
Another test addresses Tumor necrosis factor (Homo sapiens, UniProt P01375). Nature of the test: TNFa-triggered NF-kB activation inhibitors, SAR follow-up, cell-based, revised (AID 2337). The class given is functional.
In test [14] the target is T7, Nucleotide-binding oligomerization domain-containing protein 1 (Homo sapiens, UniProt Q9Y239).
T7 sequence (Q9Y239 whole entry): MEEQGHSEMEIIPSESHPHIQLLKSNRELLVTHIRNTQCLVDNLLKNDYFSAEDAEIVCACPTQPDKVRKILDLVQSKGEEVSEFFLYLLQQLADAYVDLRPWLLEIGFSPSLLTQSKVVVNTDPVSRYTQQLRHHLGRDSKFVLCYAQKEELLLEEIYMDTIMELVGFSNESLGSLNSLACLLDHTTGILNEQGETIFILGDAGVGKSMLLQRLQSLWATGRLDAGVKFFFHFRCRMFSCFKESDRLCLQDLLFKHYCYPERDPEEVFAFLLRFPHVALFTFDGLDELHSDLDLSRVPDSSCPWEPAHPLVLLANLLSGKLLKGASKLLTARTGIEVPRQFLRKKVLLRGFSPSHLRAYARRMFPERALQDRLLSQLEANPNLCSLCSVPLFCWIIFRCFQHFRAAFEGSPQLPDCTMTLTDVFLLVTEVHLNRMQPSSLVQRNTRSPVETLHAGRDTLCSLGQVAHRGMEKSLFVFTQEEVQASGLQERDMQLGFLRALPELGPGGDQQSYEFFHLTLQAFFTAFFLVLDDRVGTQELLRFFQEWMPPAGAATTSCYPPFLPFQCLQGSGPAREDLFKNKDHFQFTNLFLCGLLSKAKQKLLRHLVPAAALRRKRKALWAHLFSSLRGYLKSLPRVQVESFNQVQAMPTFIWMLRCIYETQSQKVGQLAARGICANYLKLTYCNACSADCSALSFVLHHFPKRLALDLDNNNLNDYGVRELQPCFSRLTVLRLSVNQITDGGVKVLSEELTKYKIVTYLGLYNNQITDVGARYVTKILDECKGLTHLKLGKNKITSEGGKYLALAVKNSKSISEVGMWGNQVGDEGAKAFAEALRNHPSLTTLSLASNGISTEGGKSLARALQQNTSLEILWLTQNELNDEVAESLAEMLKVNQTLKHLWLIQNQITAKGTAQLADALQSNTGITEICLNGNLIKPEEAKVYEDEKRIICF
Nature of the test: NOD1 signaling inhibitors, SAR follow-up, revised (AID 2333). It counts as functional.

Test [15] has as its system HEK293. Nature of the test: cells. Conditions: Homo sapiens.

Beta-galactosidase, sequence (Q8VNN2 whole entry): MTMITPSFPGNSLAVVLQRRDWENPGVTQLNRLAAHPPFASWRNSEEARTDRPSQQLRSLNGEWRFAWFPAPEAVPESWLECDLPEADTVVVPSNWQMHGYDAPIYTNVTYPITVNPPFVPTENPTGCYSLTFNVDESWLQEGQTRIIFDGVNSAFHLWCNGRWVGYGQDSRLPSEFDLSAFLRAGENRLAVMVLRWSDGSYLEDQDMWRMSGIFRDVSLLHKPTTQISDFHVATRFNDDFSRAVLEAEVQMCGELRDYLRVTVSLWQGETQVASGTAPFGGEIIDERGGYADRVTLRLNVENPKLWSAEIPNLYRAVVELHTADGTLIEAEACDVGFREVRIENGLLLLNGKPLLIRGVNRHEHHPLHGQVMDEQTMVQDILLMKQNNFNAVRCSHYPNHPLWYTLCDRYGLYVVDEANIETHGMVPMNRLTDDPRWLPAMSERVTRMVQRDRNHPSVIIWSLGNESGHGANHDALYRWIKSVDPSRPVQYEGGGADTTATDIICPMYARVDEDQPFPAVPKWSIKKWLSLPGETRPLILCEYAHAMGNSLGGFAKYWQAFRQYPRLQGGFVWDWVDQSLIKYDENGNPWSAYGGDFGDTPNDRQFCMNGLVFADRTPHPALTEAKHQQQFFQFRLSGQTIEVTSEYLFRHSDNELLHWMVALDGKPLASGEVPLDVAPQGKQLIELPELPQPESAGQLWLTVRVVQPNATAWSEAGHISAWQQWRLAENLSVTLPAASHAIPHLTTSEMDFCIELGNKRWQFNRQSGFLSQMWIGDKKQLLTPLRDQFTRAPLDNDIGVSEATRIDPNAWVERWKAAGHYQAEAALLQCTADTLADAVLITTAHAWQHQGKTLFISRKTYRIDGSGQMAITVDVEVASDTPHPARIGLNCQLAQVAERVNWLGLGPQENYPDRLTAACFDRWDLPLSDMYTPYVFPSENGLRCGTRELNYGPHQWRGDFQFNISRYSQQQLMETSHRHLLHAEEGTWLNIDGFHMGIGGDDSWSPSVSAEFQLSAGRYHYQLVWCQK
T3 sequence (P08684 whole entry): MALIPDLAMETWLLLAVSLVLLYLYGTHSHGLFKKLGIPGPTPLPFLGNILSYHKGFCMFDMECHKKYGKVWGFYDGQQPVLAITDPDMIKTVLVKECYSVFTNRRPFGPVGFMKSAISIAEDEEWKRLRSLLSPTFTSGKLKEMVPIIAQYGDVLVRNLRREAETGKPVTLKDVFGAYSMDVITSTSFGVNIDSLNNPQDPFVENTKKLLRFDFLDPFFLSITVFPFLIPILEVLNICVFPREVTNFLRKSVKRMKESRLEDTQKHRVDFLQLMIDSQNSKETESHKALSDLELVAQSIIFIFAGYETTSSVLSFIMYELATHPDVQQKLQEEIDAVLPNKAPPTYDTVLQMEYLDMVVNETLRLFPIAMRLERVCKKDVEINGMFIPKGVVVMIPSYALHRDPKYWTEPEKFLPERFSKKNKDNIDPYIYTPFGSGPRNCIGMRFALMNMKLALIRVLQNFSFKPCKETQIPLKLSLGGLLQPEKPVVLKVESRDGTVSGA
Tumor necrosis factor, sequence (P01375 whole entry, the tested form may be a part): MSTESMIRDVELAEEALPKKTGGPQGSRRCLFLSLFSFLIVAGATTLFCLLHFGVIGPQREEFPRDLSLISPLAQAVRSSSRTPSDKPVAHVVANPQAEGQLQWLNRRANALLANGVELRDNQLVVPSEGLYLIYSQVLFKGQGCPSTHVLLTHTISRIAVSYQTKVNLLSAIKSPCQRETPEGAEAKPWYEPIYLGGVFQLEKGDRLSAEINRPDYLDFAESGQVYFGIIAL
Nonstructural protein 1, sequence (Q194T2 whole entry): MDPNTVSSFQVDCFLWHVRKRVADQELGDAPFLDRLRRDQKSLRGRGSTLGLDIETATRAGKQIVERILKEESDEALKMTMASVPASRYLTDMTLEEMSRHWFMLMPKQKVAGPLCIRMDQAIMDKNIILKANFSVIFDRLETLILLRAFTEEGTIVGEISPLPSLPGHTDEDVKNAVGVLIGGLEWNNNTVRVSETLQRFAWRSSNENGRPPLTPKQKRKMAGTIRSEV

In the case of `O=c1c(O)c(-c2cc(O)c(O)c(O)c2)oc2cc(O)cc(O)c12` [MYRICETIN], the values for the IC50 in test [1], in test [2] and in test [3] were 12.5 µM (active), 2.39 µM (active) and 33.2 µM (active), respectively. Further, the AC50 on Cytochrome P450 2C19 was 3.98 µM (inconclusive) and 20 µM (inconclusive); at Caspase-6, 0.461 µM (active); on Cytochrome P450 3A4 [4], 25.1 µM (inconclusive); at Cytochrome P450 3A4 [5], 3.98 µM (inconclusive).
As for `CC(=O)NC12CC3CC(C1)CC(C(=O)Nc1nc4ccc(F)cc4s1)(C3)C2`, the AC50 in test [6] is 2.64 µM (active).
On to `CCOC(=O)CSC1=NC(=O)/C(=C/c2ccc(OC)cc2)S1`, for which the AC50 is 3.98 µM (active) in test [7] and 0.395 µM (active) in test [6].
Regarding `CCSc1nnc(NC(=O)c2ccccn2)s1`, the EC50 in test [8] was 6.34 µM (active); on Beta-galactosidase, > 40 µM (inactive); on Streptokinase A, > 150 µM (not active); with Streptococcus it was 15.3 µM (active). Also, the IC50 in [9] is 16.8 µM (active); at Nonstructural protein 1 it was 10.6 µM (active).
With `Cc1ccc(C(=O)N2CCN(c3ccc(F)cc3)CC2)cc1S(=O)(=O)N1CCCCC1`, in the test on HEK293 [10], the EC50 is 5.48 µM (active). In addition, the IC50 in the test with HEK293 [11] is 11.2 µM (active); with HEK293 [12], > 20 µM (inactive); in the test with HEK293 [13], 12.9 µM (inactive); at Tumor necrosis factor, 9.82 µM (active); in [14], 5.07 µM (active); in the test with HEK293 [15] it was > 20 µM (inactive).
Regarding `CC1(C)CC2(CC(c3ccccc3F)c3cc(Cl)c(O)cc3O2)NC(=S)N1` (stereo not given), the EC50 on Beta-galactosidase is > 40 µM (inactive). The IC50 in test [9] is on record as > 40 µM (not active).
